The target in the test is Carbonic anhydrase 6 (Homo sapiens) (UniProt P23280).
Carbonic anhydrase 6 (Homo sapiens), sequence (P23280 whole entry): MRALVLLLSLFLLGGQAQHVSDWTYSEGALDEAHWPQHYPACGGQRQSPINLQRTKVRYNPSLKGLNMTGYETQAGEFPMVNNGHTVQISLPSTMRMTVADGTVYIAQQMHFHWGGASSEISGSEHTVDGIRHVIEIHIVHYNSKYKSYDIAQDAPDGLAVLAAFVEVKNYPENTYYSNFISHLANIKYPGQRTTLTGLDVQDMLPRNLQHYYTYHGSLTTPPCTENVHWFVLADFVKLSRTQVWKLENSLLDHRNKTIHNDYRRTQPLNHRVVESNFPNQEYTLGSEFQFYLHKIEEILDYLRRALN

Description: Inhibition of full length human recombinant full length CA6 expressed in Escherichia coli BL21 by CO2 hydration method

`NS(=O)(=O)O` yielded a Kinact of 0.09 mM.

Consider `O=[As](O)(O)c1ccccc1`, for which the Kinact was determined as 13.9 mM.

Source of the values: ChEMBL document CHEMBL1139043, “Carbonic anhydrase inhibitors. Inhibition studies of the human secretory isoform VI with anions” (Bioorg Med Chem Lett, 2007).
